Source: patent US10590109B2, “Heterocyclic compounds used as FGFR inhibitors” (Nanjing InnoCare Pharma Tech Co., Ltd., priority 2016, dated 2020)
pIC50: −log10 of the molar value.

Experiments:
[1] = target: human recombinant FGFR2 catalytic structural domain protein (Homo sapiens (Human), UniProt P21802); assay: FGFR2 activity inhibition test (HTRF kinase assay); type: biochemical; details: 50 μM ATP
Description: FGFR2 Activity Inhibition Test
The influence of the compound according to the present invention on the activity of fibroblast growth factor receptor 2 (FGFR2) was evaluated by an in vitro kinase assay experiment.
(§1) The experimental method is summarized as follows:
The in vitro activity of FGFR2 was determined by assaying the phosphorylation level of the substrate in the kinase reaction, by means of an HTRF kinase assay kit. The reaction buffer comprised the following components: 5-fold diluted Enzymatic buffer/kinase 5× (Cisbio, Catalog number 62EZBFDD) (main ingredient: 50 mM HEPES, pH 7.0), 5 mM MgCl2, 1 mM DTT; the human recombinant FGFR2 catalytic structural domain protein (amino acids 400-821) was commercially available from Beijing Sino Biological Inc., diluted with the reaction buffer to a 0.045 ng/μL kinase solution; the substrate reaction solution comprised a biotin labeled tyrosine kinase substrate diluted with the reaction buffer to 800 nM (Cisbio, catalog number 62TK0PEC), and 50 μM ATP, and the assay solution comprised an Eu^3+ labeled cage-shaped antibody (Cisbio, Catalog number 61T66KLB) diluted with the assay buffer (Cisbio, Catalog number 62SDBRDF) to 0.125 ng/μL, and 50 nM streptavidin labeled XL665 (Cisbio, Catalog number 610SAXLB).
The compound was dissolved and diluted in 100% DMSO to 100 μM, then 4-fold-series diluted with DMSO to a minimum concentration of 0.0061 μM, and each concentration point was then 40-fold diluted with the reaction buffer. If the IC50 value of the compound was very low, the initial concentration of the compound could be reduced.
4 μL of a compound solution and 2 μL of an FGFR2 kinase solution were added into a 384 well assay plate (Thermo, Catalog number 264706), mixed uniformly and then incubated for 15 min at room temperature; subsequently, 4 μL of the substrate reaction solution was added therein, and the reaction mixture was incubated for 60 min at room temperature; and then 10 μL of an assay solution of an equal volume to the reaction was added therein and mixed uniformly, followed by placement at room temperature. After 60 min, the enzyme reaction was terminated by EDTA in the assay solution, and the phosphorylated products were identified by both the Eu^3+ labeled cage-shaped antibody (donor) and the streptavidin labeled XL665 antibody (receptor) at the same time. After the excitation with laser, the donors and receptors that were close to each other experienced energy resonance transfer, and the energy transferred from the donor (620 nm) to the receptor (665 nm) could be detected with Envision. The ratio of 665/620 is in positive correlation to the phosphorylation degree of the substrate, thereby to detect the FGFR2 kinase activity. […] The inhibition percentage of the compound against FGFR2 activity could be calculated with the following formula: Inhibition percentage=100−100*(signalcompound−signalnegative control)/(signalpositive control−signalnegative control)
The IC50 value of the compound was calculated by the following formula, from 10 concentration points, with XLfit (ID Business Solutions Ltd., UK): Y=Bottom+(Top−Bottom)/(1+10^((Log IC50−X)*slope factor))
(§2) Where, Y is the inhibition percentage, Bottom is the bottom plateau of the curve (the bottom plateau of the S-type curve), Top is the top plateau of the curve (the top plateau of the S-type curve), and X is the log value of the compound concentration to be measured.

Hep3B cells = assay: Hep3B cell proliferation inhibition test (CellTiter-Glo); type: cell-based; details: Homo sapiens, 72 h, CTG
Description: Hep3B Cell Proliferation Inhibition Test
The influence of the compound according to the present invention on Hep3B cell proliferation was evaluated by a luminescence cell viability test.
as §1
A CellTilter-Glo (CTG) assay kit was used to detect an indicator ATP of active cellular metabolism by means of a unique stable luciferase, and the luminous signal produced in the test was in direct proportion to the count of active cells in the medium, thereby to detect the cell proliferation of Hep3B.
A CellTilter-Glo agent (Promega, G7572) was comprised of a CellTilter-Glo lyophilized powder and a CellTilter-Glo buffer, and the lyophilized powder was dissolved into the buffer in use.
Hep3B cells (ATCC, HB-8064) (cell source: Shanghai Academy of Life Sciences, Chinese Academy of Sciences) were cultured in a DMEM complete medium (Thermofisher, 11995073) containing a 10% FBS (GBICO, 10099-141) and 100 units/ml mycillin mixed solution (Thermofisher, 15140122). When the cells coverage reached 80-90% in the culture vessel, after the cells were digested and blown about with 0.25% pancreatin (containing EDTA) (Thermofisher, 25200056), they were planted in a white 384 well plate (Thermofisher, 164610), with 1000 cells in each well (27 μl of a DMEM complete medium), and then the 384 well plate was placed into an incubator at 37° C. and 5% CO2 and cultured overnight (18-20 h). The compound was dissolved and diluted in 100% DMSO to 100 μM, then 4-fold-series diluted with DMSO to a minimum concentration of 0.0061 μM, and each concentration point was 50-fold diluted with the FBS-free DMEM medium. If the IC50 value of the compound was very low, the initial concentration of the compound could be reduced. […] This 384 well plate was placed into an incubator at 37° C. and 5% CO2 for further culture, taken out after 72 h, and stood at room temperature for 30 min. The CTG agent was also taken out and balanced to room temperature. 15 μl of the CTG agent was added into each well, and placed onto a shaker to be gently shaken for 3 min to ensure sufficient cell lysis. After 10 min of standing to allow the luminescence signal to be stable, the luminescence signal was read with EnVision (Perkin Elmer).
The inhibition percentage of the compound against Hep3B cell proliferation could be calculated with the following formula: Inhibition percentage=100−100*(signalcompound−signalnegative control)/(signalpositive control−signalnegative control)
The IC50 value of the compound was calculated by the following formula, from 8 concentration points, with XLfit (ID Business Solutions Ltd., UK): Y=Bottom+(Top−Bottom)/(1+10^((Log IC50−X)*slope factor))
as §2

Sequence of human recombinant FGFR2 catalytic structural domain protein (P21802 400-821): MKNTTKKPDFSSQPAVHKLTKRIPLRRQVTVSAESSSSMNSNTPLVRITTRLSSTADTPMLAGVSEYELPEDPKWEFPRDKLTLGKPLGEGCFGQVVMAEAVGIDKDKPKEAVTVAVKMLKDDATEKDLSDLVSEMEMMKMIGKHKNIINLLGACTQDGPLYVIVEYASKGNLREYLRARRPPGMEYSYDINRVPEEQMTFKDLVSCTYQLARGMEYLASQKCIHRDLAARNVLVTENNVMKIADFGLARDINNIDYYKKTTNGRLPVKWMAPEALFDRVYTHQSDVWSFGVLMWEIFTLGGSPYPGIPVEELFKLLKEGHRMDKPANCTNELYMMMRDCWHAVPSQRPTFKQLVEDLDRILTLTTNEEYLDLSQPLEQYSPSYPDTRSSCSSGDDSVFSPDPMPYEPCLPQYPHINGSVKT

- pIC50 [1]: < 6.00
- pIC50 (Hep3B cells): > 7.30
SMILES: COC[C@@H](C)Oc1cc(NC(=O)N(C)c2ccc(CN3CCOCC3=O)c(C=O)n2)ncc1C#N [Compound 14, (R)-3-(5-cyano-4-((1-methoxyprop-2-yl)oxo)pyrid-2-yl)-1-(6-formyl-5-((3-carbonylmorpholino)methyl)pyrid-2-yl)-1-methylurea]
